In PubChem BioAssay (NCI):
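Assay format: 96-well plates, 48-hour exposure. TGI is the concentration that stops growth completely.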

Tests used:
Experiment in all cases: inhibition of tumour cell growth, NCI panel, 48 h
HT29 colon = test system: HT29 colon
SK-MEL-28 melanoma = test system: SK-MEL-28 melanoma
LOX IMVI melanoma = test system: LOX IMVI melanoma
SK-MEL-2 melanoma = test system: SK-MEL-2 melanoma
MCF7 breast = test system: MCF7 breast
M14 melanoma = test system: M14 melanoma
DU-145 prostate = test system: DU-145 prostate
CAKI-1 renal = test system: CAKI-1 renal
COLO 205 colon = test system: COLO 205 colon
SK-MEL-5 melanoma = test system: SK-MEL-5 melanoma
UACC-257 melanoma = test system: UACC-257 melanoma
SN12C renal = test system: SN12C renal
BT-549 breast = test system: BT-549 breast
PC-3 prostate = test system: PC-3 prostate
TK-10 renal = test system: TK-10 renal
NCI-H460 lung = test system: NCI-H460 lung
HS 578T breast = test system: HS 578T breast
HCC-2998 colon = test system: HCC-2998 colon
RPMI-8226 leukemia = test system: RPMI-8226 leukemia

COC(=O)c1ccc(NCC2=CC(=O)C=CC2=O)cc1O
TGI (HT29 colon): 38.6 µM
TGI (SK-MEL-28 melanoma): > 100 µM
TGI (LOX IMVI melanoma): 37.5 µM
TGI (SK-MEL-2 melanoma): > 100 µM
TGI (MCF7 breast): 76.3 µM
TGI (M14 melanoma): 50.6 µM
TGI (DU-145 prostate): 29 µM
TGI (CAKI-1 renal): 32.8 µM
TGI (COLO 205 colon): 31.4 µM
TGI (SK-MEL-5 melanoma): 80.1 µM
TGI (UACC-257 melanoma): 30.6 µM
TGI (SN12C renal): 66.5 µM
TGI (BT-549 breast): 25.1 µM
TGI (PC-3 prostate): > 100 µM
TGI (TK-10 renal): 27.9 µM
TGI (NCI-H460 lung): 43.4 µM
TGI (HS 578T breast): > 100 µM

Cc1cn(C(CO)OC(CO)CN(O)C2C3CC4CC(C3)CC2C4)c(=O)[nH]c1=O (stereo not given)
TGI (HT29 colon): > 100 µM
TGI (SK-MEL-28 melanoma): > 100 µM
TGI (SK-MEL-2 melanoma): > 100 µM
TGI (MCF7 breast): > 100 µM
TGI (M14 melanoma): > 100 µM
TGI (DU-145 prostate): > 100 µM
TGI (CAKI-1 renal): > 100 µM
TGI (HCC-2998 colon): > 100 µM
TGI (COLO 205 colon): > 100 µM
TGI (SK-MEL-5 melanoma): > 100 µM
TGI (UACC-257 melanoma): > 100 µM
TGI (RPMI-8226 leukemia): > 100 µM
TGI (SN12C renal): > 100 µM
TGI (BT-549 breast): > 100 µM
TGI (PC-3 prostate): > 100 µM
TGI (TK-10 renal): > 100 µM
TGI (NCI-H460 lung): > 100 µM
TGI (HS 578T breast): > 100 µM

CCCC(=O)Nc1cc(/C=C/C(=O)N2CC(CCl)c3ccc([N+](=O)[O-])cc32)n(C)c1 (stereo not given)
TGI (HT29 colon): > 100 µM
TGI (SK-MEL-28 melanoma): > 100 µM
TGI (LOX IMVI melanoma): > 100 µM
TGI (SK-MEL-2 melanoma): > 100 µM
TGI (MCF7 breast): > 100 µM
TGI (M14 melanoma): > 100 µM
TGI (DU-145 prostate): > 100 µM
TGI (CAKI-1 renal): > 100 µM
TGI (HCC-2998 colon): > 100 µM
TGI (COLO 205 colon): > 100 µM
TGI (UACC-257 melanoma): > 100 µM
TGI (RPMI-8226 leukemia): > 100 µM
TGI (SN12C renal): > 100 µM
TGI (BT-549 breast): > 100 µM
TGI (PC-3 prostate): > 100 µM
TGI (TK-10 renal): > 100 µM
TGI (HS 578T breast): > 100 µM

Cc1cn(CC2(CO)CCC2)c(=O)[nH]c1=O
TGI (HT29 colon): > 100 µM
TGI (SK-MEL-28 melanoma): > 100 µM
TGI (LOX IMVI melanoma): > 100 µM
TGI (SK-MEL-2 melanoma): > 100 µM
TGI (MCF7 breast): > 100 µM
TGI (DU-145 prostate): > 100 µM
TGI (CAKI-1 renal): > 100 µM
TGI (HCC-2998 colon): > 100 µM
TGI (COLO 205 colon): > 100 µM
TGI (SK-MEL-5 melanoma): > 100 µM
TGI (UACC-257 melanoma): > 100 µM
TGI (RPMI-8226 leukemia): > 100 µM
TGI (SN12C renal): > 100 µM
TGI (BT-549 breast): > 100 µM
TGI (PC-3 prostate): > 100 µM
TGI (TK-10 renal): > 100 µM
TGI (NCI-H460 lung): > 100 µM
TGI (HS 578T breast): > 100 µM

COC(=O)[C@H](Cc1ccccc1)NC(=O)OCC1OC(n2cc(C)c(=O)[nH]c2=O)CC1N=[N+]=[N-] (stereo not given in full)
TGI (HT29 colon): > 100 µM
TGI (LOX IMVI melanoma): > 100 µM
TGI (SK-MEL-2 melanoma): > 100 µM
TGI (MCF7 breast): > 100 µM
TGI (M14 melanoma): > 100 µM
TGI (DU-145 prostate): > 100 µM
TGI (CAKI-1 renal): > 100 µM
TGI (HCC-2998 colon): > 100 µM
TGI (COLO 205 colon): > 100 µM
TGI (SK-MEL-5 melanoma): > 100 µM
TGI (UACC-257 melanoma): > 100 µM
TGI (RPMI-8226 leukemia): > 100 µM
TGI (SN12C renal): > 100 µM
TGI (BT-549 breast): > 100 µM
TGI (PC-3 prostate): > 100 µM
TGI (TK-10 renal): > 100 µM
TGI (NCI-H460 lung): > 100 µM
TGI (HS 578T breast): > 100 µM

O=C1C=CC(=O)c2c(O)c(NCCN3CCOCC3)c(Cl)c(O)c21
TGI (HT29 colon): 4.7 µM
TGI (SK-MEL-28 melanoma): 2.98 µM
TGI (LOX IMVI melanoma): 2.85 µM
TGI (MCF7 breast): 2.96 µM
TGI (M14 melanoma): 3.64 µM
TGI (DU-145 prostate): 3.12 µM
TGI (CAKI-1 renal): 3.25 µM
TGI (HCC-2998 colon): 3.35 µM
TGI (COLO 205 colon): 3.01 µM
TGI (SK-MEL-5 melanoma): 2.35 µM
TGI (UACC-257 melanoma): 4.56 µM
TGI (SN12C renal): 3.23 µM
TGI (BT-549 breast): 3.98 µM
TGI (PC-3 prostate): 7.15 µM
TGI (TK-10 renal): > 10 µM
TGI (NCI-H460 lung): 3.3 µM
TGI (HS 578T breast): 6.54 µM

COC(=O)Cc1cccc2c(=O)c(S(=O)(=O)NC(=O)Nc3ccc(Cl)cc3)c(-c3ccccc3)oc12
TGI (HT29 colon): > 100 µM
TGI (SK-MEL-28 melanoma): > 100 µM
TGI (LOX IMVI melanoma): > 100 µM
TGI (MCF7 breast): > 100 µM
TGI (M14 melanoma): > 100 µM
TGI (DU-145 prostate): > 100 µM
TGI (CAKI-1 renal): 74.3 µM
TGI (HCC-2998 colon): > 100 µM
TGI (COLO 205 colon): > 100 µM
TGI (SK-MEL-5 melanoma): > 100 µM
TGI (UACC-257 melanoma): > 100 µM
TGI (SN12C renal): > 100 µM
TGI (BT-549 breast): > 100 µM
TGI (PC-3 prostate): > 100 µM
TGI (TK-10 renal): > 100 µM
TGI (NCI-H460 lung): > 100 µM
TGI (HS 578T breast): > 100 µM

CC(=O)OC(OC(C)=O)c1c2ccccc2cc2ccccc12
TGI (HT29 colon): 28.6 µM
TGI (LOX IMVI melanoma): 59.9 µM
TGI (MCF7 breast): 40.7 µM
TGI (M14 melanoma): 44.8 µM
TGI (DU-145 prostate): > 100 µM
TGI (CAKI-1 renal): > 100 µM
TGI (HCC-2998 colon): 40.5 µM
TGI (COLO 205 colon): 37.2 µM
TGI (SK-MEL-5 melanoma): 25.8 µM
TGI (UACC-257 melanoma): 41 µM
TGI (RPMI-8226 leukemia): 87.2 µM
TGI (SN12C renal): 63.4 µM
TGI (BT-549 breast): 32.9 µM
TGI (PC-3 prostate): 90.5 µM
TGI (TK-10 renal): 61.2 µM
TGI (NCI-H460 lung): 31.8 µM
TGI (HS 578T breast): 78.3 µM

CC(C)(C)n1[nH]c(=O)n(C(C)(C)C)c1=O
TGI (SK-MEL-28 melanoma): > 100 µM
TGI (LOX IMVI melanoma): > 100 µM
TGI (SK-MEL-2 melanoma): > 100 µM
TGI (MCF7 breast): > 100 µM
TGI (M14 melanoma): > 100 µM
TGI (DU-145 prostate): > 100 µM
TGI (CAKI-1 renal): > 100 µM
TGI (HCC-2998 colon): > 100 µM
TGI (COLO 205 colon): > 100 µM
TGI (SK-MEL-5 melanoma): > 100 µM
TGI (UACC-257 melanoma): > 100 µM
TGI (RPMI-8226 leukemia): > 100 µM
TGI (SN12C renal): > 100 µM
TGI (BT-549 breast): > 100 µM
TGI (PC-3 prostate): > 100 µM
TGI (TK-10 renal): > 100 µM
TGI (NCI-H460 lung): > 100 µM
TGI (HS 578T breast): > 100 µM

O=P(O)(O)c1ccc2c(c1)OCCOCCOCCOCCO2
TGI (HT29 colon): > 100 µM
TGI (SK-MEL-28 melanoma): > 100 µM
TGI (LOX IMVI melanoma): > 100 µM
TGI (MCF7 breast): > 100 µM
TGI (DU-145 prostate): > 100 µM
TGI (HCC-2998 colon): > 100 µM
TGI (COLO 205 colon): > 100 µM
TGI (SK-MEL-5 melanoma): > 100 µM
TGI (UACC-257 melanoma): > 100 µM
TGI (RPMI-8226 leukemia): > 100 µM
TGI (SN12C renal): > 100 µM
TGI (BT-549 breast): > 100 µM
TGI (PC-3 prostate): > 100 µM
TGI (TK-10 renal): > 100 µM
TGI (NCI-H460 lung): > 100 µM
TGI (HS 578T breast): > 100 µM

Cc1ccc2c(ccc3ncc(CNc4ccc(NS(C)(=O)=O)cc4)c32)[nH]1
TGI (HT29 colon): 93.6 µM
TGI (SK-MEL-28 melanoma): 53.7 µM
TGI (LOX IMVI melanoma): 46.2 µM
TGI (SK-MEL-2 melanoma): 38.5 µM
TGI (MCF7 breast): 44.5 µM
TGI (M14 melanoma): 33.1 µM
TGI (DU-145 prostate): 42.6 µM
TGI (CAKI-1 renal): 58 µM
TGI (COLO 205 colon): 94.4 µM
TGI (SK-MEL-5 melanoma): 39.4 µM
TGI (UACC-257 melanoma): 34.7 µM
TGI (RPMI-8226 leukemia): 41.3 µM
TGI (SN12C renal): 92.5 µM
TGI (BT-549 breast): > 100 µM
TGI (PC-3 prostate): 68.7 µM
TGI (TK-10 renal): > 100 µM
TGI (NCI-H460 lung): 35.4 µM
TGI (HS 578T breast): 59.9 µM

COC(=O)c1ccc(Oc2nc3ccc(C(F)(F)F)cc3nc2-c2ccccc2)cc1
TGI (HT29 colon): > 100 µM
TGI (SK-MEL-28 melanoma): > 100 µM
TGI (LOX IMVI melanoma): > 100 µM
TGI (MCF7 breast): > 100 µM
TGI (DU-145 prostate): > 100 µM
TGI (CAKI-1 renal): > 100 µM
TGI (HCC-2998 colon): > 100 µM
TGI (COLO 205 colon): > 100 µM
TGI (SK-MEL-5 melanoma): > 100 µM
TGI (UACC-257 melanoma): > 100 µM
TGI (RPMI-8226 leukemia): > 100 µM
TGI (SN12C renal): > 100 µM
TGI (BT-549 breast): > 100 µM
TGI (PC-3 prostate): > 100 µM
TGI (TK-10 renal): > 100 µM
TGI (NCI-H460 lung): > 100 µM
TGI (HS 578T breast): > 100 µM

CC(=O)OCCCCn1nncc1Cn1ccc(=O)n(Cc2cnnn2CCCCOC(C)=O)c1=O
TGI (SK-MEL-28 melanoma): > 100 µM
TGI (LOX IMVI melanoma): > 100 µM
TGI (SK-MEL-2 melanoma): > 100 µM
TGI (MCF7 breast): > 100 µM
TGI (M14 melanoma): > 100 µM
TGI (DU-145 prostate): > 100 µM
TGI (CAKI-1 renal): > 100 µM
TGI (HCC-2998 colon): > 100 µM
TGI (COLO 205 colon): > 100 µM
TGI (SK-MEL-5 melanoma): > 100 µM
TGI (UACC-257 melanoma): > 100 µM
TGI (RPMI-8226 leukemia): > 100 µM
TGI (SN12C renal): > 100 µM
TGI (BT-549 breast): > 100 µM
TGI (PC-3 prostate): > 100 µM
TGI (TK-10 renal): > 100 µM
TGI (HS 578T breast): > 100 µM
